{"source": "paper PMC8422859", "about": "“A Novel Oral Arginase 1/2 Inhibitor Enhances the Antitumor Effect of PD-1 Inhibition in Murine Experimental Gliomas by Altering the Immunosuppressive Environment” (Frontiers in Oncology, 2021)", "key": {"[1]": {"tested_on": "GL261 tdTomato+luc+ glioma", "assay": "GL261 intracranial glioma growth (tumor volume, bioluminescence)", "assay_type": "in vivo, mouse", "experimental": "Mice were deeply anesthetized with isoflurane. After identifying the sagittal and coronal sutures on the right side, a hole was drilled at the following coordinates: 1 mm anterior and 1,5 mm lateral from bregma. GL261 tdTomato^+luc^+ glioma cells (80,000 in 1 μL of DMEM) were stereotactically injected with a Hamilton syringe to the right striatum of the mouse 3 mm deep from the surface of the brain. The skin incision was closed and mice were monitored until they completely recovered from anesthesia. Mice were randomly allocated to the study groups. The animals were weighed weekly and observed daily for clinical symptoms and evidence of toxicity by evaluating their eating, mobility, weight loss, hair loss, and hunched posture. OAT-1746 was administered by oral gavage at 50 mg/kg twice a day from day 1 after implantation. Anti-PD-1 antibody (Biolegend, GoInVivo™ Purified anti-mouse CD279) was injected intraperitoneally (i.p.) at a dose of 2.5 mg/kg on days 8, 10, 12, 14 post-implantation. Control groups received vehicle (saline) twice a day by gavage. Animals were euthanized when they lost more than 20% of body weight compared to day 0.\nTo monitor tumor growth, mice were injected i.p. with 150 mg/kg body weight luciferin (D-luciferin sodium salt BC218 Synchem) and left for 8 min. Then, the animals were anesthetized with 3% isoflurane and transferred to the X-treme Imaging System (Bruker, Germany). At 10 min after the D-luciferin injection, a photonic emission was imaged. Tumors were visualized at days 14, 21 and 28 after implantation and bioluminescent images were quantified as photon/sec/mm^2. […]\nThe animals were sacrificed on the day 21 after GL261 tdTomato^+luc^+ cell implantation and perfused with 4% paraformaldehyde in PBS. […] To quantify the tumor size, sections were stained with toluidine blue, and images were acquired using a Leica DM4000B microscope (Leica Microsystems, Wetzlar, Germany). Tumor areas were measured using ImageJ software (NIH, Bethesda, MD, USA) on every sixth brain slice, and tumor volumes were calculated as previously described ([26])."}, "[2]": {"tested_on": "glioma-associated CD11b+ cells", "assay": "RNA-seq of CD11b+ cells from tumor-bearing hemispheres", "assay_type": "in vivo, mouse", "experimental": "Immediately after sorting, CD11b^+ cells were centrifuged and lysed for further isolation of RNA using the RNeasy Plus Mini Kit (Qiagen, Germany). The integrity and quality of RNA were assessed on an Agilent 2100 Bioanalyzer with an RNA 6000 Pico Kit (Agilent Technologies, CA, USA). A total of 9 strand-specific RNA libraries were prepared for sequencing (2-3 biological replicates/treatment) using a KAPA Stranded mRNA-Seq Kit (Kapa Biosystems, MA, USA). Poly-A mRNAs were purified from 100 ng of total RNA using poly-T-oligo-magnetic beads (Kapa Biosystems, MA, USA). mRNAs were fragmented and a first-strand cDNA was synthesized using reverse transcriptase and random hexamers. […] Final libraries were analyzed using Bioanalyzer and Agilent DNA High Sensitivity chips (Agilent Technologies, Santa Clara, CA, USA) to confirm fragment sizes (~300 bp). Quantification was performed using a Quantus fluorometer and the QuantiFluor dsDNA System (Promega, Madison, Wisconsin, US). […]\nIllumina-specific adapters, short reads, and low quality 5’ and 3’ bases were filtered out in the FASTQ format files using Trimmomatic ([27]) tool (version 0.36). The resulting RNA sequencing reads were aligned to a reference mouse genome sequence (mm10) with STAR aligner ([28]) (version 2.6.1b) using the two pass Mode Basic option. […]"}}, "data": [{"smiles": "CN(C)C[C@@H]1CC[C@@H](CCB(O)O)C[C@]1(N)C(=O)O", "note": "[OAT-1746]", "values": [{"measurement": "animals that developed tumors at day 14", "setting": "[1]; bioluminescence, day 14", "value": "5 out of 8"}, {"measurement": "tumor growth (tumor volume on brain sections)", "setting": "[1]; day 21, OAT-1746 50 mg/kg oral twice a day, anti-PD-1 2.5 mg/kg i.p. days 8, 10, 12, 14", "value": "did not reduce the tumor growth"}, {"measurement": "glioma growth (bioluminescence imaging)", "setting": "[1]; days 14, 21, 28 post-implantation", "value": "did not show any effect on the tumor volume"}, {"measurement": "differentially expressed genes versus CTR (padj<0.05)", "setting": "[2]", "value": "over 1800 genes"}]}]}
